Numbered stars: 1 amine (or outer) side, 2 acyl side, 3 side chain; on linkers, the order of the positions; unused ones are H or OH. Square brackets hold non-standard residues; d marks the D form. Peptide text beside a SMILES is read from it. * marks the point of attachment. DOTA = O=C(O)CN1CCN(CC(=O)O)CCN(CC(=O)*)CCN(CC(=O)O)CC1; Gly(N-(3-F-4-Me-benzyl)) = Cc1ccc(CNCC(=O)*)cc1F; X14 = O=C([C@H]1CC[C@@H](CN[*:1])CC1)[*:2]; d(γGlu) = O=C(O)[C@@H](CCC(=O)[*:2])N[*:1]; Phe(3-F) = N[C@@H](Cc1cccc(F)c1)C(=O)O; Trx = NC[C@H]1CC[C@H](C(=O)O)CC1; X1 = O=C(CN1CCC(N[*:1])CC1)[*:2]; 4Pal = N[C@@H](Cc1ccncc1)C(=O)O; Api = NC1(C(=O)O)CCNCC1; Ahx = NCCCCCC(=O)O; azaGly = NNC(=O)O

Data on 14 compounds can be found in US20250312499A1, “KISSPEPTIN RECEPTOR (KISS1R) TARGETED THERAPEUTICS AND USES THEREOF” (priority 2024, published 2025).

Chain of human kisspeptin receptor (Q969F8 whole entry): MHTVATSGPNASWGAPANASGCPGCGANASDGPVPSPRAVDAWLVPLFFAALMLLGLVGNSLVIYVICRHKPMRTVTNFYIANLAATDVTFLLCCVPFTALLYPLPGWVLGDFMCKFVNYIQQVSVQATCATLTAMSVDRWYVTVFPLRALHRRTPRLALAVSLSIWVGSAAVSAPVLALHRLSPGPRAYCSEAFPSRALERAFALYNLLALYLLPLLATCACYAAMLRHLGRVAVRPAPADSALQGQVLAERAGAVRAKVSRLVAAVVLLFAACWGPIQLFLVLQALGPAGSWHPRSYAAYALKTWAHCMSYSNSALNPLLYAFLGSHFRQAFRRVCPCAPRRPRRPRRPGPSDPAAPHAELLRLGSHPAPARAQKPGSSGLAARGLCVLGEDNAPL

The target in this assay is human kisspeptin receptor (Homo sapiens (Human), UniProt Q969F8). Put plainly: Human KISS1R binding assay (membrane competition binding). To be noted: 90 min at room temperature; competition with 0.2 nM [125I]-metastin (45-54); Flp-In T-Rex 293 kisspeptin membranes; metal complexes nonradioactive Ga, In, Lu; read-out: hKiSSR Binding Ki (90 min). Put shortly:
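Radioligand competition: 0.2 nM [125I]-metastin (45-54) displaced by test ligand (usually 0–10,000 nM) over 90 min at room temperature, pH 7.4 buffer with 0.1% BSA. Receptor source is crude membrane (5–10 μg) from tetracycline-induced Flp-In T-Rex 293 cells. Bound label filtered and counted; Ki from non-linear regression.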
In general, Ki refers to a measure of affinity in units of concentration, obtained from inhibition or displacement. For `Cc1ccc(CNCC(=O)N2CCC(NC(=O)[C@H](CC(C)C)NC(=O)NNC(=O)[C@H](Cc3ccccc3)NC(=O)[C@@H](NC(=O)[C@H](CC(N)=O)NC(=O)[C@@H](Cc3c[nH]c4ccccc34)NC(=O)[C@H](Cc3ccc(O)cc3)NC(=O)CNC(=O)CN3CCN(CC(=O)O)CCN(CC(=O)O)CCN(CC(=O)O)CC3)[C@@H](C)O)(C(=O)N[C@@H](Cc3c[nH]c4ccccc34)C(N)=O)CC2)cc1F` [Compound 151] ({DOTA}-GY[dW]NTF[azaGly]L[Api](Gly(N-(3-F-4-Me-benzyl)))W-NH2), the Ki was less than 0.01 µM.
Consider `Cc1ccc(CNCC(=O)N2CCC(NC(=O)[C@H](CC(C)C)NC(=O)NNC(=O)[C@H](Cc3ccccc3)NC(=O)CC[C@@H](NC(=O)CN3CCN(CC(=O)O)CCN(CC(=O)O)CCN(CC(=O)O)CC3)C(=O)O)(C(=O)N[C@@H](Cc3c[nH]c4ccccc34)C(N)=O)CC2)cc1F` [Compound 156] ({DOTA-d(γGlu)}-F[azaGly]L[Api](Gly(N-(3-F-4-Me-benzyl)))W-NH2), for which the Ki is less than 0.01 µM.
To `Cc1ccc(CNCC(=O)N2CCC(NC(=O)[C@H](CC(C)C)NC(=O)NNC(=O)[C@H](Cc3ccccc3)NC(=O)[C@@H](NC(=O)[C@H](CC(N)=O)NC(=O)CN3CCC(NC(=O)CN4CCN(CC(=O)O)CCN(CC(=O)O)CCN(CC(=O)O)CC4)CC3)[C@@H](C)O)(C(=O)N[C@@H](Cc3c[nH]c4ccccc34)C(N)=O)CC2)cc1F` [Compound 158] ({DOTA}-[X1]NTF[azaGly]L[Api](Gly(N-(3-F-4-Me-benzyl)))W-NH2) belongs less than 0.01 µM; to `Cc1ccc(CNCC(=O)N2CCC(NC(=O)[C@H](CC(C)C)NC(=O)NNC(=O)[C@H](Cc3cccc(F)c3)NC(=O)[C@@H](NC(=O)[C@H](CC(N)=O)NC(=O)[C@H](CCC(=O)O)NC(=O)CN3CCC(NC(=O)CN4CCN(CC(=O)O)CCN(CC(=O)O)CCN(CC(=O)O)CC4)CC3)[C@@H](C)O)(C(=O)N[C@@H](Cc3c[nH]c4ccccc34)C(N)=O)CC2)cc1F` [Compound 159] ({DOTA}-[X1]ENT[Phe(3-F)][azaGly]L[Api](Gly(N-(3-F-4-Me-benzyl)))W-NH2), less than 0.01 µM.
The value for `Cc1ccc(CNCC(=O)N2CCC(NC(=O)[C@H](CC(C)C)NC(=O)NNC(=O)[C@H](Cc3cccc(F)c3)NC(=O)[C@@H](NC(=O)[C@H](CC(N)=O)NC(=O)[C@H](CCC(=O)O)NC(=O)[C@H]3CC[C@H](CNC(=O)CN4CCN(CC(=O)O)CCN(CC(=O)O)CCN(CC(=O)O)CC4)CC3)[C@@H](C)O)(C(=O)N[C@@H](Cc3c[nH]c4ccccc34)C(N)=O)CC2)cc1F` [Compound 160] ({DOTA-Trx}-ENT[Phe(3-F)][azaGly]L[Api](Gly(N-(3-F-4-Me-benzyl)))W-NH2) was less than 0.01 µM; that for `Cc1ccc(CNCC(=O)N2CCC(NC(=O)[C@H](CC(C)C)NC(=O)NNC(=O)[C@H](Cc3cccc(F)c3)NC(=O)[C@@H](NC(=O)[C@H](CC(N)=O)NC(=O)[C@@H](CCC(=O)O)NC(=O)[C@H]3CC[C@H](CNC(=O)CN4CCN(CC(=O)O)CCN(CC(=O)O)CCN(CC(=O)O)CC4)CC3)[C@@H](C)O)(C(=O)N[C@@H](Cc3c[nH]c4ccccc34)C(N)=O)CC2)cc1F` [Compound 161] ({DOTA-Trx}-[dE]NT[Phe(3-F)][azaGly]L[Api](Gly(N-(3-F-4-Me-benzyl)))W-NH2) was less than 0.01 µM; that for `Cc1ccc(CNCC(=O)N2CCC(NC(=O)[C@H](CC(C)C)NC(=O)NNC(=O)[C@H](Cc3cccc(F)c3)NC(=O)[C@@H](NC(=O)[C@H](CC(N)=O)NC(=O)[C@H](CCCCN)NC(=O)CN3CCC(NC(=O)CN4CCN(CC(=O)O)CCN(CC(=O)O)CCN(CC(=O)O)CC4)CC3)[C@@H](C)O)(C(=O)N[C@@H](Cc3c[nH]c4ccccc34)C(N)=O)CC2)cc1F` [Compound 164] ({DOTA}-[X1]KNT[Phe(3-F)][azaGly]L[Api](Gly(N-(3-F-4-Me-benzyl)))W-NH2) was less than 0.01 µM.
To `Cc1ccc(CNCC(=O)N2CCC(NC(=O)[C@H](CC(C)C)NC(=O)NNC(=O)[C@H](Cc3ccccc3)NC(=O)[C@H]3CC[C@H](CNC(=O)CC[C@@H](NC(=O)CN4CCN(CC(=O)O)CCN(CC(=O)O)CCN(CC(=O)O)CC4)C(=O)O)CC3)(C(=O)N[C@@H](Cc3c[nH]c4ccccc34)C(N)=O)CC2)cc1F` [Compound 165] ({DOTA-d(γGlu)-Trx}-F[azaGly]L[Api](Gly(N-(3-F-4-Me-benzyl)))W-NH2) belongs less than 0.01 µM; to `Cc1ccc(CNCC(=O)N2CCC(NC(=O)[C@H](CC(C)C)NC(=O)NNC(=O)[C@H](Cc3ccccc3)NC(=O)[C@H]3CC[C@H](CNC(=O)[C@@H](CCC(=O)O)NC(=O)CN4CCN(CC(=O)O)CCN(CC(=O)O)CCN(CC(=O)O)CC4)CC3)(C(=O)N[C@@H](Cc3c[nH]c4ccccc34)C(N)=O)CC2)cc1F` [Compound 166] ({DOTA}-[dE][Trx]F[azaGly]L[Api](Gly(N-(3-F-4-Me-benzyl)))W-NH2), less than 0.01 µM; to `CSCC[C@H](NC(=O)c1ccc(CNC(=O)CN2CCN(CC(=O)O)CCN(CC(=O)O)CCN(CC(=O)O)CC2)cc1)C(=O)N[C@H](C(=O)NCc1ccc(C(=O)N[C@@H](CCSC)C(=O)N[C@H](C(=O)N[C@@H](CCCCNC(=O)CCCCC(=O)N[C@@H](CC(N)=O)C(=O)N[C@H](C(=O)N[C@@H](Cc2ccccc2)C(=O)NNC(=O)N[C@@H](CC(C)C)C(=O)NC2(C(=O)N[C@@H](Cc3c[nH]c4ccccc34)C(N)=O)CCN(C(=O)CNCc3ccc(C)c(F)c3)CC2)[C@@H](C)O)C(=O)O)C(C)C)cc1)C(C)C` [Compound 167], less than 0.01 µM.
Regarding `CSCC[C@H](NC(=O)c1ccc(CNC(=O)CN2CCN(CC(=O)O)CCN(CC(=O)O)CCN(CC(=O)O)CC2)cc1)C(=O)N[C@@H](Cc1c[nH]c2ccccc12)C(=O)N[C@@H](CCCCNC(=O)CCCCC(=O)N[C@@H](CC(N)=O)C(=O)N[C@H](C(=O)N[C@@H](Cc1ccccc1)C(=O)NNC(=O)N[C@@H](CC(C)C)C(=O)NC1(C(=O)N[C@@H](Cc2c[nH]c3ccccc23)C(N)=O)CCN(C(=O)CNCc2ccc(C)c(F)c2)CC1)[C@@H](C)O)C(=O)O` [Compound 168], the Ki was less than 0.01 µM.
`Cc1ccc(CNCC(=O)N2CCC(NC(=O)[C@H](CC(C)C)NC(=O)NNC(=O)[C@H](Cc3cccc(F)c3)NC(=O)[C@@H](NC(=O)[C@H](CC(N)=O)NC(=O)CCCCCNC(=O)CN3CCN(CC(=O)O)CCN(CC(=O)O)CCN(CC(=O)O)CC3)[C@@H](C)O)(C(=O)N[C@@H](Cc3ccncc3)C(N)=O)CC2)cc1F` [Compound 169] ({DOTA-Ahx}-NT[Phe(3-F)][azaGly]L[Api](Gly(N-(3-F-4-Me-benzyl)))[4Pal]-NH2): the Ki was less than 0.01 µM.
To `Cc1ccc(CNCC(=O)N2CCC(NC(=O)[C@H](CC(C)C)NC(=O)NNC(=O)[C@H](Cc3cccc(F)c3)NC(=O)[C@@H](NC(=O)[C@H](CC(N)=O)NC(=O)[C@H](CCC(=O)O)NC(=O)[C@H]3CC[C@@H](CNC(=O)CN4CCN(CC(=O)O)CCN(CC(=O)O)CCN(CC(=O)O)CC4)CC3)[C@@H](C)O)(C(=O)N[C@@H](Cc3ccncc3)C(N)=O)CC2)cc1F` [Compound 170] ({DOTA}-[X14]ENT[Phe(3-F)][azaGly]L[Api](Gly(N-(3-F-4-Me-benzyl)))[4Pal]-NH2) belongs less than 0.01 µM; to `Cc1ccc(CNCC(=O)N2CCC(NC(=O)[C@H](CC(C)C)NC(=O)NNC(=O)[C@H](Cc3cccc(F)c3)NC(=O)[C@@H](NC(=O)[C@H](CC(N)=O)NC(=O)[C@H](CCC(=O)O)NC(=O)CN3CCN(CC(=O)O)CCN(CC(=O)O)CCN(CC(=O)O)CC3)[C@@H](C)O)(C(=O)N[C@@H](Cc3ccncc3)C(N)=O)CC2)cc1F` [Compound 171] ({DOTA}-ENT[Phe(3-F)][azaGly]L[Api](Gly(N-(3-F-4-Me-benzyl)))[4Pal]-NH2), 0.01 to 0.1 µM.
